# Results: publication PMC11406518, “Intranasal Administration of Bedaquiline-Loaded Fucosylated Liposomes Provides Anti-Tubercular Activity while Reducing the Potential for Systemic Side Effects” (ACS Infectious Diseases, 2024)
# Assays:
# [1] = tested on: Mtb H37Rv in murine bone marrow-derived macrophages; assay: in vitro antitubercular activity in infected murine bone marrow-derived macrophages; assay type: cell-based, Mycobacterium tuberculosis; details: primary BMDM infected with H37Rv; doses 1 and 0.1 μg/mL
# [2] = tested on: mycobacterial ATP synthase; parameters: method as in PMID 20521931; details: selectivity; cited from earlier work
# H37Rv strain of Mtb = tested on: H37Rv strain of Mtb; parameters: method as in PMID 22155815; details: cited from earlier work
# [3] = parameters: method as in PMID 35112802; details: TargoSphere platform; cited from earlier work
# [4] = estimated; 25 °C; cited from earlier work
# [5] = estimated; cited from earlier work
# [6] = cited from earlier work
# mycobacteria = details: cited from earlier work
# [7] = parameters: method as in PMID 22155815, PMID 34370588; details: in vitro; cited from earlier work
# [8] = parameters: method as in PMID 22155815; details: oral route; cited from earlier work
# [9] = coadministration with high-fat meals
smiles,measurement,setting,value
"COc1nc2ccc(Br)cc2cc1[C@@H](c1ccccc1)[C@@](O)(CCN(C)C)c1cccc2ccccc12 [BDQ, Bedaquiline]",reduction in CFU/mL,[1],significant reductions in CFU/mL
same,higher affinity for mycobacterial ATP synthase versus eukaryotic ATP synthase,[2],"> 20,000"
same,minimum bactericidal concentration (MBC),H37Rv strain of Mtb,0.3 µg/mL
same,minimum inhibitory concentration (MIC),H37Rv strain of Mtb,0.06 µg/mL
same,loading capacity,[3],5–7 % of the total mass
same,solubility in aqueous media,[4],2 ng/mL
same,logP,[5],7.74
same,bioavailability,[6]; administered orally,high bioavailability
same,median tmax,[6]; administered orally,~5 h
same,increase of AUC with food,[6]; [9],2 fold
same,increase of Cmax with food,[6]; [9],2 fold
same,protein binding,[6]; in vivo,> 99%
same,terminal elimination half-life,[6]; in vivo,4–5 months
same,volume of distribution,[6]; in vivo,164 L
"CNCCC(O)(c1cccc2ccccc12)C(c1ccccc1)c1cc2cc(Br)ccc2nc1OC (stereo not drawn) [M2, N-desmethyl-bedaquiline]","antimycobacterial activity, fold lower than BDQ",mycobacteria,4–6 fold
same,cytotoxicity and phospholipidogenesis,[7],higher cytotoxicity and phospholipidogenesis
same,AUCLung:AUCplasma ratio,[8],100–200
C[C@H]1COc2c(N3CCN(C)CC3)c(F)cc3c(=O)c(C(=O)O)cn1c23 [levofloxacin],encapsulation efficiency,[3],66–80%
